Data set [1] addresses HbS (Homo sapiens, UniProt P68871+P69905, E7V). To be noted: cited from earlier work.
For data set [2], the target named is T1, hemoglobin (Homo sapiens, UniProt P68871+P69905). The experiment in a line: association rates of gases for hemoglobin. The data set is classed as binding.
Data set [3] concerns the target T1, hemoglobin. To be noted: cited from earlier work.
For data set [4] the following is noted: cited from earlier work.
In data set [5] the test system is spinal dorsal horn neurons. To be noted: cited from earlier work; for nociception depending on age: various ages / the young.
The conditions of data set [6]: with oxygen, human adults; cited from earlier work.
For data set [7] the following is noted: inhaled xenon; cited from earlier work.

For the compound `CCC` [propane], in data set [1], the “effect on HbS aggregation” value was “prevent and reverse HbS aggregation”.
As to `CC` [ethane], in data set [1], the “effect on HbS aggregation” value is “prevent and reverse HbS aggregation”.
In the case of `C` [methane], the “effect on HbS aggregation” value in data set [1] was “prevent and reverse HbS aggregation”.
As to `[Xe]` [xenon], in data set [2] (versus CO), the “xenon association rate for hemoglobin relative to CO” value stood at 10 times faster. Further, the “xenon association rate for hemoglobin relative to O2” value in data set [2] (versus O2) is 1-2 times faster. Besides, the “xenon in blood carried by hemoglobin” value in data set [3] (during xenon inhalation, estimated) was 45%. Besides, in data set [3] (reduced versus oxyhemoglobin), the “amount of xenon bound by reduced and oxyhemoglobin” value is “approximately the same”. In data set [4] (human, in vivo), the “analgesia to cold pain” value is reported as “not to cold pain”; the “analgesia to ischemic, electrical, mechanical, and heat stimulation” value is reported as “produced analgesia”; the “analgesic potency compared with nitrous oxide” value is given as “comparable or superior to nitrous oxide”. The “response to experimentally induced, standardized forms of pain” value in data set [4] (inhaled dose of ~20%, healthy volunteers) is listed as “significantly decrease the response”. Besides, the “nociceptive responsiveness of spinal dorsal horn neurons” value in data set [5] (animal studies) is given as “directly inhibited”. In addition, in data set [5], the “nociception depending on age” value is recorded as “reduce nociception at various ages”. For the same compound, the “1 MAC, inhaled fractional concentration” value in data set [6] is 0.63-0.73. Moreover, the “inhaled concentration at which nausea and vomiting has been observed” value in data set [7] is reported as greater than 30%.
As to `[N-]=[N+]=O` [nitrous oxide], in data set [5], the “nociception depending on age” value is “ineffective in the young”.

The values above are taken from patent publication US20100203156A1, “XENON AS A TREATMENT FOR HEMOGLOBINOPATHY” (priority 2009, published 2010).
